Results taken from patent US20260263443A1, “COMPOUND FOR TREATMENT OF FEMALE SEXUAL DYSFUNCTION” (Initiator Pharma A/S, priority 2022, published 2026).
Structures can show the parent of a compound that is named as a salt. Where two headings read alike, the source gives them in different places.

Tests used:
[1] = tested on: Female Sprague Dawley rats; assay: Sexual (paracopulatory) behaviour of estrus-synchronized female rats paired with male rats; assay type: in vivo, rat
Method: Animals: Female Sprague Dawley rats (12-15 weeks old) were housed in the animal facility in Universal Euro Ill type long width cages with standard wood bedding and space for 2 rats with a clean environment, and a comfortable temperature (22-23° C.) with 12:12 h light-dark cycle starting at 11 am and they had free access to food and tap water.
Synchronization of the sexual cycle in estrus of female rats: Female Sprague Dawley rats with an average weight of 250 g were synchronized in the estrus phase of the sexual cycle by injecting with 250 μg prostaglandin F2α (PGF2α) subcutaneously at day 0 and day 3.
To investigate the sexual behavior, the synchronized female rats were paired with trained male rats and behaviour recorded by two cameras. The videos were quantified by a trained operator blinded for the treatments.
Data analysis and statistics: Statistical differences between vehicle, apomorphine and two different doses of IP2015 were analysed using one-way analysis of variance (ANOVA) followed by Tukey post-test. The assumptions of the models were investigated by inspecting Q-Q plots and data were logarithmically transformed when necessary in order to generate a Gaussian-distributed data set. In case where the data were skewed, the Brown-Forsythe test was applied. The ROUT method (Q=1%) was used to exclude data from the analysis. A P<0.05 was considered statistically significant. Post-tests were only done if F was significant and there was no variance inhomogeneity. All statistical analyses were performed using GraphPad Prism 9.5 software (GraphPad Software, CA, USA).

[2] = target: T1, dopamine (DA) reuptake in synaptosomes (Rattus norvegicus, UniProt P23977); assay: Inhibition of dopamine (DA) reuptake in synaptosomes; assay type: biochemical; details: 3H-DA, read-out: DA-uptake IC50
T1 construct: in synaptosomes as described in WO 97/16451; from tissue
Method: (§1) Compounds were tested for their ability to inhibit the reuptake of the monoamine neurotransmitters dopamine (DA), noradrenaline (NA), and serotonin (5-HT) in synaptosomes as described in WO 97/16451 (NeuroSearch A/S).
(§2) The test values are given as IC50 (the concentration (μM) of the test substance which inhibits the specific binding of ^3H-DA, ^3H-NA, or ^3H-5-HT by 50%).

[3] = tested on: female Sprague Daley rats; assay: Mean arterial pressure and heart rate in anaesthetized female rats; assay type: in vivo, rat; details: infusion 0.3 to 10 mg/kg, versus vehicle
Method: Measurements mean arterial pressure and heart rate: The anaesthetized rats breathed spontaneously and body temperature was monitored continuously, and maintained at 37.5° C. by placing them on a heating blanket. A heparinized (100 IE mL-1) polyethylene (PE) catheter (PE-50) connected to a pressure transducer (Disposable BP Transducer, AD Instruments, UK) was introduced into the carotid artery to measure MAP. Following a stabilization period of 10-20 min, continuous direct measurements of mean arterial pressure (MAP) and heart rate (HR) were obtained, registered, and analysed on a computerized data acquisition system (PowerLab, ADInstruments).

[4] = tested on: female Sprague Daley rats; assay: Laser Doppler measurement of clitoral blood flow in anaesthetized female rats; assay type: in vivo, rat
Method: (§3) Animals: The experimental setup was run in two different sets of measurement procedures to avoid a variation given by each other. The first set of experiments was run in control female rats, and the second set was run in a depressed model called Flint Sensitive Line (FSL), which shares molecular similarities to major depressive patients.
(§4) Anesthesia and general surgical procedure: The rats were injected intraperitoneally with pentobarbital 50 mg/Kg. After 10 min in dark conditions a pinch of the interdigital area confirmed unresponsive of reflexes and the animal was prepared on a table, where legs were semi-extended by tape to fix the animal. The areas of interest (abdomen-inguinal and neck) were shaved and clean-disinfected with water and ethanol. After each study was completed, the animal was sacrificed by an overdose of pentobarbital, and the Atlanto-occipital joint was severed to guarantee a painless procedure for the animal.
Measurements of clitoral blood flow and genital temperature: A suture Nylon 4-0 with a needle was used to extend the urethra opening and expose the mucosa. […] A calibrated laser Doppler flow probe (VP1T, Moor instruments-UK) was used to measure on the front-side of the clitoris, which was connected to the laser Doppler flow monitor; MOORVMS-LDF2 (Moor instruments-UK). A laser Doppler probe was positioned and fixed to a base and a crocodile clamp in order to avoid any movement. The tip of the calibrated probe was immersed in a water-based gel in the exposed area of the urethra-clitoris (FIG. 1B).
A calibrated laser Doppler flow probe (VP1T, Moor instruments-UK) was used to measure on the front-side of the clitoris, which was connected to the laser Doppler flow monitor; MOORVMS-LDF2 (Moor instruments-UK). […] The infusion protocol was performed in sets of 1 min infusion +4 min of further recording of blood flow changes recorded by the system. Electrical field stimulation of the cavernous nerve to the clitoris was utilized as a positive control as described below.
Measurements of clitoral blood flow following electrical stimulation of the cavernous nerve to the clitoris: Through a lower abdominal incision, the cavernous nerve to clitoris was isolated, and electrical stimulation was performed with a slender bipolar platinum electrode, which was connected to a S48 stimulator (Grass Instrument Co., Boston, MA, U.S.A.). To investigate whether stimulation of the nerve leads to hemodynamic changes in the clitorial tissue, the nerve was stimulated as previously described for male rats, with parameters eliciting the maximum amplitude of response (square wave pulses of 6 Volts, 10 Hz, 1 ms for 30 s), and flow was measured with laser Doppler. Clitoral blood flow was measured via laser Doppler as aforementioned.

[5] = target: T2, noradrenaline (NA) reuptake in synaptosomes (Rattus norvegicus, UniProt Q63380); details: reported in U.S. Pat. No. 9,133,184 B1; cited from earlier work
T2 construct: in synaptosomes as described in WO 97/16451; from tissue

[6] = tested on: depressed FSL rats; assay: Thermographic measurement of genital temperature in female rats; assay type: in vivo, rat
Method: as §3, §4
A thermographic FLIR camera (E96, InfraTec, Germany, FIG. 1) was positioned at 50 cm distance from the area of interest (FIG. 1C). Three areas (thorax, vagina, and urethral-clitoris) of interest were recorded by digital markers positioned using the Research Studio-FLIR, and data were extracted and imported to Excel.

[7] = target: T2, noradrenaline (NA) reuptake in synaptosomes; assay: Inhibition of noradrenaline (NA) reuptake in synaptosomes; assay type: biochemical; details: 3H-NA, read-out: NA-uptake IC50
Method: as §1, §2

[8] = target: T1, dopamine (DA) reuptake in synaptosomes; details: reported in U.S. Pat. No. 9,133,184 B1; cited from earlier work
[9] = infusion 0.3 to 10 mg/kg via jugular vein
[10] = infusion 0.3 to 10 mg/kg via jugular vein, laser Doppler
[11] = depressed FSL rats, infusion of increasing doses 0.3-10 mg/Kg, thermography 4x zoom

T2 sequence (Q63380 1-617): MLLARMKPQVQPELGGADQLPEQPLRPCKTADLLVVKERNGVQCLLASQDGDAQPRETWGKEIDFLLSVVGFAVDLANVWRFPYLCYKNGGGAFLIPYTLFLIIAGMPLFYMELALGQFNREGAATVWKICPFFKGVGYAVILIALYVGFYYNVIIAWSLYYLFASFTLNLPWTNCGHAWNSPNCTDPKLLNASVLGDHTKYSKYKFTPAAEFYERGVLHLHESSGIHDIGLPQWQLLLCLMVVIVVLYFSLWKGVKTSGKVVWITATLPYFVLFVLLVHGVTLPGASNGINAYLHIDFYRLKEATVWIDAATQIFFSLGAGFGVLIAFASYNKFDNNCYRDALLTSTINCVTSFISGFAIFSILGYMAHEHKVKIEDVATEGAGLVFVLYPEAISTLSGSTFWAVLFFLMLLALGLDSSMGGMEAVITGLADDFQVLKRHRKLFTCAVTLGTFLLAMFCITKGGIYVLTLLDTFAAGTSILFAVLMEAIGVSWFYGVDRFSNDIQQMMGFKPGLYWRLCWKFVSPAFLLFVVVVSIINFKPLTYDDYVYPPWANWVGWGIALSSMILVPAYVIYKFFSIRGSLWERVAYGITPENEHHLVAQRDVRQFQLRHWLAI
T1 sequence (P23977 whole entry): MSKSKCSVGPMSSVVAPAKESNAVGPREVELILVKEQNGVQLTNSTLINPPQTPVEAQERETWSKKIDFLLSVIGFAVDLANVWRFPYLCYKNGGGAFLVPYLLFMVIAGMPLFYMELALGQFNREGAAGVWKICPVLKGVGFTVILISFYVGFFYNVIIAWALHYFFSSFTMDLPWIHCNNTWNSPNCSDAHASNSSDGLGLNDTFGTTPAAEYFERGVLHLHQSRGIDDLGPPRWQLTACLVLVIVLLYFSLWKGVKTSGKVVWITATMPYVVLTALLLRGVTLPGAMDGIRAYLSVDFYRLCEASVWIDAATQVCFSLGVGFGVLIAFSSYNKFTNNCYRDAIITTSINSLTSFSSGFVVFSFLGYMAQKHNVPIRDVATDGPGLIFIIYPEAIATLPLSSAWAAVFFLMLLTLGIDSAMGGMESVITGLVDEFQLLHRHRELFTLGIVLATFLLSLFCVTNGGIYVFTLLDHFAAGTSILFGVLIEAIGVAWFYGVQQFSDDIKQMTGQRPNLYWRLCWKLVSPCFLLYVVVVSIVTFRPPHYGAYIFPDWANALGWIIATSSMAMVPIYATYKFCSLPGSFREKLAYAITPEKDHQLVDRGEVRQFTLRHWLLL

| SMILES | paracopulatory parameters (hops, ear wiggling, darts) ([1]; 0.25 mg/kg) | IC50 [2] [nM] | heart rate (HR) [3] | mean arterial pressure (MAP) [3] | average clitoral blood flow compared to vehicle [4, 9] | peak clitoral blood flow compared to vehicle [4, 9] | duration of blood flow in the clitoral area [4, 10] | frequency of blood flow in the clitoral area [4, 10] | magnitude of blood flow in the clitoral area [4, 10] | Peak clitoral blood flow following infusion ([4]; laser Doppler trace, electrical stimulation of cavernous nerve gave 4.31 V) [V] | number of hops compared to apomorphine ([1]; 10 mg/kg) | darts compared with vehicle and apomorphine ([1]; 1 and 10 mg/kg) | ear wiggling ([1]; single injection, 1 and 10 mg/kg) | IC50 [5] [nM] | temperature in the clitoral area [6, 11] | temperature in the vagina [6, 11] | core temperature (anal thermometer) ([6]; during infusion of IP2015) | IC50 [7] [nM] | IC50 [8] [nM] |
| --- | --- | --- | --- | --- | --- | --- | --- | --- | --- | --- | --- | --- | --- | --- | --- | --- | --- | --- | --- |
| CN1CCc2cccc3c2[C@H]1Cc1ccc(O)c(O)c1-3 [apomorphine, reference compound] | did not change | – | – | – | – | – | – | – | – | – | – | – | – | – | – | – | – | – | – |
| COc1cc2ccc(O[C@@H]3C[C@H]4CC[C@@H](C3)N4)cc2oc1=O [IP2015, exo-7-[(8-azabicyclo[3.2.1]octan-3-yl)oxy]-3-methoxy-chromen-2-one hydrochloride] | – | 70 | significantly increased | comparable to vehicle | significantly increased | significantly increased | increased | increased | increased | 4.49 | increased | dose-dependently increased | did not change | 3.8 | dose-dependent increases | dose-dependent increases | unchanged | 3.8 | 70 |
